Structures can show the parent of a compound that is named as a salt. Where two headings read alike, the source gives them in different places.
Key:
[1] = target: T1, SARS-CoV-2 PLpro (nsp3 1564–1878) (Severe acute respiratory syndrome coronavirus 2, UniProt P0DTD1); experiment: biochemical; set-up: FRET-quenched peptide (Pro3) cleavage by PLpro, 10 min pre-incubation, slope over 20 min, normalised to no-compound control; conditions: high concentration screen, read-out: % of control remaining
[2] = target: T1, SARS-CoV-2 PLpro (nsp3 1564–1878); experiment: biochemical; set-up: FRET-quenched peptide (Pro3) cleavage by PLpro, 10 min pre-incubation, slope over 20 min, normalised to no-compound control; conditions: low concentration screen, read-out: % of control remaining

## CCCCCCCC/C=C/CCCCCCCCC(=O)O [10(E)-Nonadecenoic acid]
[1]; Well no.=4546
  remaining activity at 3.75 µM: 102%
[2]; Well no.=4546
  remaining activity at 1.25 µM: 98.5%

## CCCC/C=C/CCCCCCCCC(=O)O [10(E)-Pentadecenoic acid]
[1]; Well no.=4300
  remaining activity at 3.75 µM: 89.6%
[2]; Well no.=4300
  remaining activity at 1.25 µM: 97.7%

## CCCCC/C=C\C/C=C\CCCCCCCCC(=O)O [10(Z),13(Z)-Nonadecadienoic acid]
[1]; Well no.=4396
  remaining activity at 3.75 µM: 92.5%
[2]; Well no.=4396
  remaining activity at 1.25 µM: 97.8%

## CCCC/C=C\CCCCCCCCC(=O)O [10(Z)-Pentadecenoic acid]
[1]; Well no.=4542
  remaining activity at 3.75 µM: 97.8%
[2]; Well no.=4542
  remaining activity at 1.25 µM: 89.2%

## CCN(CC)C(C)C(=O)N1c2ccccc2Sc2ccccc21 (stereo not drawn) [10-(alpha-Diethylaminopropionyl)-phenothiazine hydrochloride]
[1]; Well no.=531
  remaining activity at 3.75 µM: 99.7%
[2]; Well no.=531
  remaining activity at 1.25 µM: 104%

## C=CCCCCCCCCC(=O)O [10-Undecenoic acid]
[1]; Well no.=4254
  remaining activity at 3.75 µM: 91.9%
[2]; Well no.=4254
  remaining activity at 1.25 µM: 99%

## CCC(Sc1nnc2c(n1)[nH]c1ccccc12)C(=O)N1c2ccccc2Sc2ccccc21 (centres unmarked) [10-[2-(5H-[1,2,4]triazino[5,6-b]indol-3-ylsulfanyl)butanoyl]-10H-phenothiazine]
[1]; Well no.=5509
  remaining activity at 3.75 µM: 108%
[2]; Well no.=5509
  remaining activity at 1.25 µM: 110%

## CCN(CC)CCCCN1c2ccccc2Oc2ccc(Cl)cc21 [10-[4'-(N,N-Diethylamino)butyl]-2-chlorophenoxazine hydrochloride]
[1]; Well no.=2574
  remaining activity at 3.75 µM: 101%
[2]; Well no.=2574
  remaining activity at 1.25 µM: 97.3%

## Cc1ccc(S(=O)(=O)N2c3ccccc3Oc3ccccc32)cc1 [10-[(4-methylphenyl)sulfonyl]-10H-phenoxazine]
[1]; Well no.=6041
  remaining activity at 3.75 µM: 96.7%
[2]; Well no.=6041
  remaining activity at 1.25 µM: 96.2%

## CCCCCC/C=C/CCCCCCCCCC(=O)O [11(E)-Octadecenoic acid]
[1]; Well no.=4350
  remaining activity at 3.75 µM: 104%
[2]; Well no.=4350
  remaining activity at 1.25 µM: 106%

## CCCCCCCC/C=C\CCCCCCCCCC(=O)O [11(Z)-Eicosenoic acid]
[1]; Well no.=4406
  remaining activity at 3.75 µM: 93.7%
[2]; Well no.=4406
  remaining activity at 1.25 µM: 96.4%

## CCCCCC/C=C\CCCCCCCCCC(=O)O [11(Z)-Octadecenoic acid]
[1]; Well no.=4348
  remaining activity at 3.75 µM: 94%
[2]; Well no.=4348
  remaining activity at 1.25 µM: 102%

## CCCCC[C@H](O)/C=C/[C@H]1OC(=O)C[C@H](O)[C@@H]1C/C=C\CCCC(=O)O [11-Dehydro-thromboxane B2]
[1]; Well no.=4288
  remaining activity at 3.75 µM: 99.7%
[2]; Well no.=4288
  remaining activity at 1.25 µM: 103%

## C=CCCCCCCCCCC(=O)O [11-Dodecenoic acid]
[1]; Well no.=4258
  remaining activity at 3.75 µM: 96.7%
[2]; Well no.=4258
  remaining activity at 1.25 µM: 98.8%

## O=C(O)CCC/C=C\C/C=C\C=C\[C@@H](O)C/C=C\CCCCCO [12(S),20-DIHETE]
[1]; Well no.=4565
  remaining activity at 3.75 µM: 101%
[2]; Well no.=4565
  remaining activity at 1.25 µM: 99.6%

## CCCCC[C@H](O)/C=C/C=C/C/C=C\CCCC(=O)O [12(S)-HHT]
[1]; Well no.=4234
  remaining activity at 3.75 µM: 103%
[2]; Well no.=4234
  remaining activity at 1.25 µM: 101%

## CCCCC/C=C\C[C@@H](/C=C/C=C\C/C=C\CCCC(=O)O)OO [12(S)-HPETE]
[1]; Well no.=4329
  remaining activity at 3.75 µM: 103%
[2]; Well no.=4329
  remaining activity at 1.25 µM: 110%

## CCCCCCCC/C=C\CCCCCCCCCCC(=O)O [12(Z) Heneicosenoic acid]
[1]; Well no.=4452
  remaining activity at 3.75 µM: 102%
[2]; Well no.=4452
  remaining activity at 1.25 µM: 94%

## CCCCC/C=C\C/C=C\CCCCCCCCCCC(=O)O [12(Z), 15(Z)-Heneicosadienoic acid]
[1]; Well no.=4454
  remaining activity at 3.75 µM: 89.9%
[2]; Well no.=4454
  remaining activity at 1.25 µM: 95.1%

## CC(=O)OCC1=C[C@H]2[C@@H]3C(C)(C)[C@]3(OC(=O)Cc3ccccc3)C[C@@H](C)[C@]2(O)[C@@H]2C=C(C)C(=O)[C@@]2(O)C1 [12-Deoxyphorbol 13-phenylacetate 20-acetate]
[1]; Well no.=3229
  remaining activity at 3.75 µM: 105%
[2]; Well no.=3229
  remaining activity at 1.25 µM: 107%

## COCCCCCCCCCCCC(=O)O [12-Methoxydodecanoic acid]
[1]; Well no.=4262
  remaining activity at 3.75 µM: 94.8%
[1]; Well no.=4359
  remaining activity at 3.75 µM: 97.3%
[2]; Well no.=4262
  remaining activity at 1.25 µM: 96%
[2]; Well no.=4359
  remaining activity at 1.25 µM: 101%

## C=CCCCCCCCCCCC(=O)O [12-Tridecenoic acid]
[1]; Well no.=4264
  remaining activity at 3.75 µM: 98%
[2]; Well no.=4264
  remaining activity at 1.25 µM: 91.3%

## CCCCC[C@@H](/C=C/C=C\CCCCCCCC(=O)O)OO [13(S)-HPODE]
[1]; Well no.=4388
  remaining activity at 3.75 µM: 101%
[2]; Well no.=4388
  remaining activity at 1.25 µM: 102%

## CCCCC/C=C\C/C=C\CCCCCCCCCCCC(=O)O [13(Z),16(Z)-Docosadienoic acid]
[1]; Well no.=4462
  remaining activity at 3.75 µM: 101%
[2]; Well no.=4462
  remaining activity at 1.25 µM: 100%

## CCCCC[C@H](O)CC[C@H]1[C@H](O)CC(=O)[C@@H]1CCCCCCC(=O)O [13,14-Dihydro-prostaglandin E1]
[1]; Well no.=4278
  remaining activity at 3.75 µM: 101%
[2]; Well no.=4278
  remaining activity at 1.25 µM: 102%

## CC1=C(/C=C/C(C)=C/C=C/C(C)=C\C(=O)O)C(C)(C)CCC1 [13-cis Retinoic acid]
[1]; Well no.=3134
  remaining activity at 3.75 µM: 98.9%
[1]; Well no.=4430
  remaining activity at 3.75 µM: 96%
[2]; Well no.=3134
  remaining activity at 1.25 µM: 98.4%
[2]; Well no.=4430
  remaining activity at 1.25 µM: 95.1%

## CC1=C(/C=C/C(C)=C/C=C/C(C)=C\C(=O)O)C(C)(C)CCC1 [13-cis-retinoic acid]
[1]; Well no.=1348
  remaining activity at 3.75 µM: 101%
[2]; Well no.=1348
  remaining activity at 1.25 µM: 95.9%

## CCCCCCCC/C=C/CCCCCCCCCCCCC(=O)O [14(E)-Tricosenoic acid]
[1]; Well no.=4500
  remaining activity at 3.75 µM: 94.8%
[2]; Well no.=4500
  remaining activity at 1.25 µM: 95.4%

## CCCCCCCC/C=C\CCCCCCCCCCCCC(=O)O [14(Z)-Tricosenoic acid]
[1]; Well no.=4498
  remaining activity at 3.75 µM: 93.7%
[2]; Well no.=4498
  remaining activity at 1.25 µM: 99.3%

## CCCCCC#CC[C@@H](O)/C=C/C=C/C=C\[C@@H](O)CCCC(=O)O [14,15-Dehydroleukotriene B4]
[1]; Well no.=4518
  remaining activity at 3.75 µM: 94.4%
[2]; Well no.=4518
  remaining activity at 1.25 µM: 97.4%

## CCCCC[C@H](O)/C=C/C=C\C/C=C\C/C=C\CCCC(=O)O [15(S)-HETE]
[1]; Well no.=4289
  remaining activity at 3.75 µM: 97.2%
[2]; Well no.=4289
  remaining activity at 1.25 µM: 102%

## CCCCC[C@H](O)/C=C/C=C\C/C=C\CCCCCCC(=O)O [15(S)-HETrE]
[1]; Well no.=4229
  remaining activity at 3.75 µM: 106%
[2]; Well no.=4229
  remaining activity at 1.25 µM: 99.3%

## CCCCC[C@@H](/C=C/C=C\CCCCCCCCCC(=O)O)OO [15(S)-HPEDE]
[1]; Well no.=4333
  remaining activity at 3.75 µM: 105%
[2]; Well no.=4333
  remaining activity at 1.25 µM: 108%

## CC/C=C\C[C@@H](/C=C/C=C\C/C=C\C/C=C\CCCC(=O)O)OO [15(S)-HPEPE]
[1]; Well no.=4335
  remaining activity at 3.75 µM: 102%
[2]; Well no.=4335
  remaining activity at 1.25 µM: 103%

## CCCCC[C@@H](/C=C/C=C\C/C=C\C/C=C\CCCC(=O)O)OO [15(S)-HPETE]
[1]; Well no.=4331
  remaining activity at 3.75 µM: 98.7%
[2]; Well no.=4331
  remaining activity at 1.25 µM: 99.3%

Reference: PMC8286840, “Identifying SARS-CoV-2 antiviral compounds by screening for small molecule inhibitors of Nsp3 papain-like protease” (Biochemical Journal, 2021)
